{"source": "patent US20100104661A1", "about": "“DISCONTINUOUS METHODS OF TREATING CANCER” (priority 2006, published 2010)", "key": {"[1]": {"test_system": "AIDS-related Kaposi's sarcoma", "conditions": "135 mg/m^2 every 3 weeks versus 100 mg/m^2 every 2 weeks; cited from earlier work"}, "[2]": {"test_system": "node-positive breast cancer", "conditions": "adjuvant, sequentially to doxorubicin-containing chemotherapy; total population of patients with receptor-positive and receptor-negative tumors; cited from earlier work"}, "[3]": {"test_system": "22Rv1 prostate tumor xenografts", "assay": "22Rv1 prostate tumor xenograft, first experiment (lonafarnib 3.5 days on/3.5 days off, docetaxel once weekly)", "type": "in vivo, male athymic nude mice", "conditions": "single-agent docetaxel 20 mpk i.p. once weekly; after 3 weeks (21 days)", "procedure": "(§1) Intermittent dosing of lonafarnib at 60 mpk BID around the administration of docetaxel was tested in two experiments using the 22Rv1 androgen-independent prostate cancer xenograft model. In both experiments 22Rv1 prostate tumor xenografts were grown in male athymic nude mice. When tumor volumes were approximately 100 mm^3, the animals were randomized (n=10 per treatment group) for grouping. […] In addition, tumor regressions were observed when intermittent lonafarnib was combined with docetaxel.\nIn the first experiment (see FIG. 1) male mice (n=10 per treatment group) bearing 22Rv1 tumor xenografts were treated with lonafarnib administered at either 30 mpk BID continuously or 60 mpk BID intermittently (3.5 days on/3.5 days off). Docetaxel was administered at 20 mpk once weekly after the fourth dose of lonafarnib. Tumor volumes were measured twice weekly. After 3 weeks (21 days) of treatment, single-agent docetaxel inhibited 22Rv1 tumor growth by 66%. Continuous treatment with single-agent lonafarnib at 30 mpk BID inhibited tumor growth by 85% and intermittent dosing of single-agent lonafarnib at 60 mpk BID inhibited tumor growth by 80%. When combined with weekly administration of docetaxel, continuous treatment with 30 mpk BID lonafarnib caused 22Rv1 tumors to regress by 23%. However, when combined with docetaxel, intermittent lonafarnib (60 mpk BID) caused the tumors to regress by 46%. […]"}, "[4]": {"test_system": "22Rv1 prostate tumor xenografts", "assay": "22Rv1 prostate tumor xenograft, second experiment (lonafarnib 5 days on/5 days off, docetaxel once every 10 days)", "type": "in vivo, male athymic nude mice", "conditions": "single-agent docetaxel 20 mpk i.p. once every 10 days; after 24 days", "procedure": "as §1\nThe second experiment (see FIG. 3) was also performed with male mice (n=10 per treatment group) bearing 22Rv1 prostate tumor xenografts that were approximately 100 mm^3 in volume. Lonafarnib was administered at 30 mpk BID continuously or 60 mpk BID intermittently (5 days on/5 days off). Docetaxel was administered at 20 mpk once every 10 days after the second dose of lonafarnib. After 24 days of treatment, single-agent docetaxel inhibited 22Rv1 tumor growth by 78%. Continuous treatment with single-agent lonafarnib at 30 mpk BID inhibited tumor growth by 68% and intermittent dosing of single-agent lonafarnib at 60 mpk BID inhibited tumor growth by 78%. When combined with docetaxel, continuous treatment with 30 mpk BID lonafarnib caused 22Rv1 tumors to regress by 10%. However, when combined with docetaxel, intermittent lonafarnib (60 mpk BID) caused the tumors to regress by 37%. […]"}, "[5]": {"test_system": "NSCLC", "conditions": "100 mg/m^2 in patients previously treated with chemotherapy; cited from earlier work"}}, "data": [{"molecule": "CC(=O)O[C@H]1C(=O)[C@@]2(C)[C@H]([C@H](OC(=O)c3ccccc3)[C@]3(O)C[C@H](OC(=O)[C@H](O)[C@@H](NC(=O)c4ccccc4)c4ccccc4)C(C)=C1C3(C)C)[C@]1(OC(C)=O)CO[C@@H]1C[C@@H]2O", "note": "[Taxol, paclitaxel]", "values": [{"measurement": "toxicity of dosing schedules", "setting": "[1]", "result": "more toxic than the latter"}, {"measurement": "effect on disease-free and overall survival", "setting": "[2]", "result": "overall favorable effect on disease-free and overall survival"}]}, {"molecule": "CC(=O)O[C@@]12CO[C@@H]1C[C@H](O)[C@@]1(C)C(=O)[C@H](O)C3=C(C)[C@@H](OC(=O)[C@H](O)[C@@H](NC(=O)OC(C)(C)C)c4ccccc4)C[C@@](O)([C@@H](OC(=O)c4ccccc4)[C@H]21)C3(C)C", "note": "[docetaxel]", "values": [{"measurement": "inhibition of 22Rv1 tumor growth", "setting": "[3]", "result": 66, "unit": "%"}, {"measurement": "inhibition of 22Rv1 tumor growth", "setting": "[4]", "result": 78, "unit": "%"}, {"measurement": "toxicity at higher dose", "setting": "[5]", "result": "associated with increased hematologic toxicity, infection, and treatment related mortality"}]}]}
